Results as given in US8247613B2, “Methods and compositions for the synergistic activation of latent HIV” (The J. David Gladstone Institutes, priority 2006, dated 2012).

Assays:
[1] = system: latent HIV expression in J-Lat6.3kRed2 cells; type: cell-based
Method: In a similar experiment, J-Lat6.3kRed2 cells, a modified cell line derived from J-Lat6.3 containing an integrated kB-DsRed2 reporter, was used. J-Lat6.3kRed2 cells were counted and adjusted to 1×10^6 cells/ml. 80 μl aliquots were pipetted in a 96-well u-bottomed plate. Two-fold serial dilutions of 4, 2, and 1 μM trichostatin A (TSA) were made and added to the cells at final concentrations of 400 nM, 200 nM, and 100 nM, respectively. Three-fold serial dilutions of 100, 33, 11, 3.7 μM prostratin were made and added to cells at final concentrations of 10 μM, 3.3 μM, 1.1 μM, and 0.37 μM (0.4 μM in FIG. 1C), respectively. Samples were mixed by pipetting, returned to a 37° C. incubator with 5% CO2 and 90% humidity for 20 hours, HIV-LTR-driven expression of GFP was assessed by flow cytometry as described above.
In order to test a possible synergistic effect of additional histone deacetylase inhibitors, the effect of valproic acid in combination with prostratin was analyzed. J-Lat6.3kRed2 cells were adjusted to 1×10^6 cells/ml. 80 μl cell aliquots were pipetted in a 96-well u-bottomed plate. […] HIV-LTR-driven expression of GFP was assessed by flow cytometry as described above.

[2] = system: J-Lat6.3kRed2 cells; test: Cell viability assay (flow cytometry light scatter), J-Lat6.3kRed2 cells; type: cell-based
Method: (§1) Following stimulation, cells were cultured for 16 hours at 37° C. 90% humidity, 5% CO2. Cells were then analyzed by flow cytometry for viability.
(§2) Cells were scored as viable if they were detected in a characteristically “live” region of light scatter and defraction as measured by flow cytometry.
(§3) As described herein, it is known in the art that high concentrations of prostratin exert some toxic effects on cells. Thus, using the same experimental set-up as described in Example 2, above, cell viability was determined. Cell viability were quantitated as described above. Using J-Lat 6.3 cells and 8.4 T-cells, it was observed that 2 μM prostratin induced cell death in about 50% of the cells. […] In this experiment, cells were incubated with prostratin for about 20 hours, whereas J-Lat 6.3 cells and 8.4 T-cells (in FIGS. 2A and 2B) were incubated with prostratin for 36 hours.
As described in Example 3 for TSA, the effect of valproic acid on blocking prostratin-induced cell death was analyzed using the same experimental set-up as described in Example 4.

[3] = cited from earlier work
[4] = system: latent HIV expression; details: more potent than prostratin; cited from earlier work
[5] = system: latent HIV expression in J-Lat 6.3 cells; test: HIV-LTR-driven expression of GFP (flow cytometry) in J-Lat 6.3 cells; type: cell-based; details: 16 hours; for activation of latent HIV expression (GFP-positive cells): J-Lat 6.3 cells
Method: (§4) J-Lat 6.3, J-Lat 8.4 T-cells, and J-Lat 9.2 cells are Jurkat T cell lines containing integrated but transcriptionally latent HIV proviruses. These J-Lat cells contain wild-type Tat and TAR and appear to be highly representative of the latently infected cells present in vivo (Williams et al., 2004, J Biol Chem 279(40):42008-42017).
(§5) J-Lat 6.3 T cells, J-Lat 8.4 T-cells and J-Lat 9.2 T cells were obtained from Jordan et al., (Jordan et al., 2003, EMBO J 22(8):1868-1877). J-Lat cells were cultured in RPMI supplemented with 10% fetal calf serum (FCS) and penicillin/streptomycin and L-glutamine described (Williams et al., 2004, J Biol Chem 279(40):42008-42017; Williams et al., 2006, EMBO J 25:139-149).
(§6) The J-Lat T-cell clones used herein are infected with full-length HIV proviruses and contain the Aequorea victoria green fluorescent protein (GFP) gene in lieu of Net thus permitting epifluorescence monitoring of viral transcriptional activity. Under basal conditions, little or no GFP expression is detected; however, transcriptional activation of the latent provirus leads to GFP expression, which can be detected at the single-cell level by flow cytometry. Flow cytometry analysis and FACS was essentially performed as described (Williams et al., 2004, J Biol Chem 279(40):42008-42017).
(§7) Cells were analyzed for GFP-fluorescence and general viability characteristics on a FACSCalibur flow cytometer (Becton Dickinson). Data were analyzed with FlowJo (Treesoft) flow cytometry analysis software.
(§8) J-Lat 6.3 and 8.4 T-cells cultured in RPMI supplemented with 10% fetal calf serum (FCS) and penicillin/streptomycin were counted and adjusted to 1×10^6 cells/ml. 80 μl aliquots of J-Lat 6.3 and 8.4 T-cells, respectively, were pipetted in a 96-well u-bottomed plate. […] Then HIV-LTR-driven expression of GFP was assessed by flow cytometry using a Beckton Dickenson FACScalibur as described above. […] Cells with greater GFP fluorescence than a non-GFP expressing Jurkat control cells were considered GFP-positive.

[6] = system: latent HIV expression in J-Lat 8.4 T-cells; test: HIV-LTR-driven expression of GFP (flow cytometry) in J-Lat 8.4 T-cells; type: cell-based; details: 16 hours; for activation of latent HIV expression (GFP-positive cells): J-Lat 8.4 T-cells
Method: as §4, §5, §6, §7, §8

[7] = system: J-Lat 6.3 cells; test: Cell viability assay (flow cytometry light scatter), J-Lat 6.3 cells; type: cell-based
Method: as §1, §2, §3

[8] = system: J-Lat 8.4 T-cells; test: Cell viability assay (flow cytometry light scatter), J-Lat 8.4 T-cells; type: cell-based
Method: as §1, §2, §3

[9] = concentration of >500 nM for more than 2 days; cited from earlier work
[10] = system: latent HIV expression in J-Lat 6.3 cells; test: Tat transfection assay, latent HIV-driven GFP expression in J-Lat 6.3 cells; type: cell-based; details: for effect on Tat-induced latent HIV-driven expression of GFP: coadministration with Tat (FLAG-Tat transfected cells), 16 hours, J-Lat 6.3 cells (FIG. 5)
Method: 10^6 J-Lat 6.3 cells cultured in RPMI+10% fetal calf serum (FCS) and penicillin/streptomycin were pelleted by centrifugation and resuspended in 0.4 mL RPMI without serum. Cell suspension was mixed with 1 μg of pMACS-kk H2kk expression vector DNA (Miltenyi), and 10 μg of pCMV4 (Andersson et al., 1989, J Biol Chem 264 (14):8222-8229), or 10 μg pCMV4-FLAG-Tat expression vector (gift of Eric Verdin), transferred to a 0.4 cm gap electroporation cuvette (Stratagene), and electroporated at 975 μF, […] for ˜25×10^−3 seconds. Electroporated cells were resuspended in 4 mL medium, and returned to cell culture for 48 hours. 90 μl aliquots of each sample were distributed to U-bottomed 96-well plates and 10 μl of 200 ng/mL TNF-α (Biosource), 10 μl of 1 mM Trichostatin A (Biomol), or 10 μl of RPMI. For 30′-pulse TNF-α stimulation experiments, 10 μl of 200 ng/mL TNF-α was added to 90 μl cell suspension for 30 minutes, cells were transferred to a V-bottomed 96 well plate and centrifuged at […] for 3 minutes. Supernatant was removed and replaced, and procedure was repeated 2×. Cells were resuspended in 100 μl fresh RPMI with 10% serum and penicillin/streptomycin. 16 hours after treatment, cells were pelleted by centrifugation, and resuspended in 50 μl PBS+1:100 dilution of streptavidin-conjugated anti-H2kk antibody. Samples were incubated 10 minutes, diluted in 200 μl PBS, pelleted by centrifugation, and supernatant removed. […] Samples were analyzed by flow cytometry using a Beckton Dickinson FACSCalibur. Cells were analyzed using FlowJo (TreeSoft) flow cytometry analysis software. Live cells were identified by characteristic light scatter and defraction and exclusively analyzed. Cells with APC fluorescence greater that untransfected cells stained with biotin-APC were considered to be H2kk-positive, and to have been successfully transfected. […]

[11] = system: latent HIV expression in J-Lat 9.2 cells; test: Tat transfection assay, latent HIV-driven GFP expression in J-Lat 9.2 cells; type: cell-based; details: FLAG-Tat transfected J-Lat 9.2 cells (FIG. 6); result similar to Example 6
[12] = co-administration of 100 nM TSA with 2 μM prostratin

CCCC(CCC)C(=O)O [valproic acid, 2-propylpentanoic acid]
potentiation of the effect of prostratin on latent HIV expression ([1]; valproic acid 0.3 mM with prostratin 0.37 μM, 18 hours, J-Lat6.3kRed2 cells (FIG. 3)): 6-7 fold | effect on prostratin-induced cell death ([2]; valproic acid at all tested concentrations (0.3-3 mM), prostratin 10 μM, J-Lat6.3kRed2 cells (FIG. 4)): blocked prostratin-induced cell death | time of peak serum levels ([3]; after a single oral dose): 1 to 4 h | serum half-life ([3]; in vivo): 6 to 16 h | absorption after oral administration ([3]; oral): rapidly absorbed

CC1=C[C@H]2[C@@]3(O)[C@H](C)C[C@]4(OC(=O)Cc5ccccc5)C([C@@H]3C=C(CO)C[C@]2(O)C1=O)C4(C)C (stereo partly shown) [DPP, 12-deoxyphorbol 13-phenylacetate]
potency relative to prostratin [4]: 20-40 fold

CC(=O)O[C@@]12C[C@@H](C)[C@@]3(O)[C@@H](C=C(CO)C[C@]4(O)C(=O)C(C)=C[C@@H]34)[C@@H]1C2(C)C [prostratin, 12-deoxyphorbol 13-acetate]
activation of latent HIV expression (GFP-positive cells) ([5]; prostratin 2 μM alone): induced the activation of latent HIV expression | activation of latent HIV expression (GFP-positive cells) ([6]; prostratin 2 μM alone): induced the activation of latent HIV expression | prostratin-induced cell death (cells) ([7]; 2 μM prostratin, incubated 36 hours (FIG. 2A)): about 50% | prostratin-induced cell death (cells) ([8]; 2 μM prostratin, incubated 36 hours (FIG. 2B)): about 50% | toxicity (growth arrest and cell death) [9]: substantial growth arrest and cell death

CC(/C=C/C(=O)NO)=C\[C@@H](C)C(=O)c1ccc(N(C)C)cc1 [TSA, [R-(E,E)]-7-[4-(Dimethylamino)phenyl]-N-hydroxy-4,6-dimethyl-7-oxo-2,4-heptadienamide]
activation of latent HIV expression (GFP-positive cells) ([5]; TSA 100 nM administered alone): no significant effect | potentiation of the effect of prostratin on latent HIV expression ([5]; TSA 100 nM with prostratin 2 μM, J-Lat 6.3 cells (FIG. 1A)): 5-6 fold | activation of latent HIV expression (GFP-positive cells) ([6]; TSA 100 nM administered alone): no significant effect | potentiation of the effect of prostratin on latent HIV expression ([6]; TSA 100 nM with prostratin 2 μM, J-Lat 8.4 T-cells (FIG. 1B)): 6-7 fold | synergistic effect on activation of latent HIV expression ([1]; 370 (400) nM TSA in combination with 0.4 μM prostratin, 20 hours, J-Lat6.3kRed2 cells (FIG. 1C)): about 16 fold | effect on the activation of latent HIV expression ([1]; TSA 100-400 nM with prostratin 0.37-10 μM, 20 hours, J-Lat6.3kRed2 cells): drastic effect | effect on prostratin-induced cell death [7, 12]: almost completely inhibited | effect on prostratin-induced cell death [8, 12]: almost completely inhibited | effect on prostratin-induced cell death ([2]; TSA with prostratin up to 10 μM, about 20 hours, J-Lat6.3kRed2 cells (FIG. 2C)): inhibited prostratin-induced cell death | effect on Tat-induced latent HIV-driven expression of GFP [10]: strongly enhanced | activation of expression of latent HIV (GFP) together with Tat [11]: Synergizes with Tat

TNF-α
expression of latent HIV (GFP) ([10]; 30-minute pulse treatment of TNF-α, without Tat, J-Lat 6.3 cells): weak expression | effect on Tat-induced latent HIV-driven expression of GFP [10]: strongly enhanced | activation of expression of latent HIV (GFP) together with Tat [11]: Synergizes with Tat
